Test results: paper PMC8690038, “Mechanism of the feedback-inhibition resistance in aspartate kinase of Corynebacterium pekinense: from experiment to MD simulations” (RSC Advances, 2020)

T1: WT (Corynebacterium glutamicum, UniProt P26512)
T1 construct: gene lysC; recombinant from pET-28a-AK, His Trap purified, about 48 kDa
T1 sequence (P26512 1-421): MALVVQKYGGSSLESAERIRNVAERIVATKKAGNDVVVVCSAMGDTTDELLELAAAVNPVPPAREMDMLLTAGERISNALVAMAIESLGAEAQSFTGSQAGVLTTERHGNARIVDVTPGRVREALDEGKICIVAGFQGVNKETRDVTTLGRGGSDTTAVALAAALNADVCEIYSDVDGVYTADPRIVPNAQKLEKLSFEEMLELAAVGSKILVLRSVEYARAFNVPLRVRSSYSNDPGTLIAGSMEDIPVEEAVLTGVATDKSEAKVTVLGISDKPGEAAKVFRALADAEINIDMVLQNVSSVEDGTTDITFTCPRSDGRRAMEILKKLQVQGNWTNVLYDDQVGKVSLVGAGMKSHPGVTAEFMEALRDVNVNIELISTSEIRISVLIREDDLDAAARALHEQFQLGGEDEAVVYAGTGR

B1: WT (Corynebacterium glutamicum ATCC 13032) (protein)
chain: MALVVQKYGGSSLESAERIRNVAERIVATKKAGNDVVVVCSAMGDTTDELLELAAAVNPVPPAREMDMLLTAGERISNALVAMAIESLGAEAQSFTGSQAGVLTTERHGNARIVDVTPGRVREALDEGKICIVAGFQGVNKETRDVTTLGRGGSDTTAVALAAALNADVCEIYSDVDGVYTADPRIVPNAQKLEKLSFEEMLELAAVGSKILVLRSVEYARAFNVPLRVRSSYSNDPGTLIAGSMEDIPVEEAVLTGVATDKSEAKVTVLGISDKPGEAAKVFRALADAEINIDMVLQNVSSVEDGTTDITFTCPRSDGRRAMEILKKLQVQGNWTNVLYDDQVGKVSLVGAGMKSHPGVTAEFMEALRDVNVNIELISTSEIRISVLIREDDLDAAARALHEQFQLGGEDEAVVYAGTGR
notes: recombinant from pET-28a-AK, His Trap purified, about 48 kDa
B2: A380C (Corynebacterium glutamicum ATCC 13032; A362C) (protein)
chain: MALVVQKYGGSSLESAERIRNVAERIVATKKAGNDVVVVCSAMGDTTDELLELAAAVNPVPPAREMDMLLTAGERISNALVAMAIESLGAEAQSFTGSQAGVLTTERHGNARIVDVTPGRVREALDEGKICIVAGFQGVNKETRDVTTLGRGGSDTTAVALAAALNADVCEIYSDVDGVYTADPRIVPNAQKLEKLSFEEMLELAAVGSKILVLRSVEYARAFNVPLRVRSSYSNDPGTLIAGSMEDIPVEEAVLTGVATDKSEAKVTVLGISDKPGEAAKVFRALADAEINIDMVLQNVSSVEDGTTDITFTCPRSDGRRAMEILKKLQVQGNWTNVLYDDQVGKVSLVGAGMKSHPGVTCEFMEALRDVNVNIELISTSEIRISVLIREDDLDAAARALHEQFQLGGEDEAVVYAGTGR
notes: recombinant from pET-28a-AK in E. coli BL21, His Trap purified, about 48 kDa
B3: T379N/A380C (Corynebacterium glutamicum ATCC 13032; A362C/T361N) (protein)
chain: MALVVQKYGGSSLESAERIRNVAERIVATKKAGNDVVVVCSAMGDTTDELLELAAAVNPVPPAREMDMLLTAGERISNALVAMAIESLGAEAQSFTGSQAGVLTTERHGNARIVDVTPGRVREALDEGKICIVAGFQGVNKETRDVTTLGRGGSDTTAVALAAALNADVCEIYSDVDGVYTADPRIVPNAQKLEKLSFEEMLELAAVGSKILVLRSVEYARAFNVPLRVRSSYSNDPGTLIAGSMEDIPVEEAVLTGVATDKSEAKVTVLGISDKPGEAAKVFRALADAEINIDMVLQNVSSVEDGTTDITFTCPRSDGRRAMEILKKLQVQGNWTNVLYDDQVGKVSLVGAGMKSHPGVNCEFMEALRDVNVNIELISTSEIRISVLIREDDLDAAARALHEQFQLGGEDEAVVYAGTGR
notes: as for B2

Experiments:
WT [1] = target: T1, WT; assay: Microscale thermophoresis of NT-647-NHS-labelled AK (40 nM) with diluted Asp in the enzyme activity measurement system, 28 °C, Monolith NT.115, no Lys added.; format: binding; details: read-out: K d (mM) Asp
Method: (§1) The purified AK concentration was adjusted to 2–20 μM with labeled buffer. The solid fluorescent dye (NT-647-NHS) was appended with 100% DMSO (30 μL) and dissolved thoroughly after vortex vibration. Then the dyes were adjusted to 2–3 folds of the protein concentration with the marker buffer. Protein and the solid fluorescent dye were mingled in equal proportion for dark reaction 30 min, and then purified according to the purification kit operation. The unlabeled substrate Asp and inhibitor Lys were diluted in the enzymatic activity measurement system, and the final concentration ranged from […], respectively, which they were incubated with the labeled protein (40 nM) at room temperature for 10 min. Then the samples were loaded into the Standard Capillaries from Nano Temper Technologies. Thermophoresis was measured 30 min after incubation at 28 °C on Monolith NT.115.[22] The dissociation constant (Kd) values were fitted by means of the MO. Affinity analysis software.

WT [2] = target: T1, WT; assay: Microscale thermophoresis of NT-647-NHS-labelled AK (40 nM) with diluted Lys in the enzyme activity measurement system, 28 °C, Monolith NT.115.; format: binding; details: read-out: K d (mM) Lys
Method: as §1

CpAK mutant T379N/A380C [3] = target: T2, CpAK mutant T379N/A380C (Corynebacterium glutamicum, UniProt P26512, A362C/T361N); assay: biochemical; parameters: species or system Corynebacterium pekinense; details: read-out: Relative activity (%)
T2 construct: His-tag (pET-28a) (N); made in house; host or cells: E. coli BL21
Method: (§2) The reaction was performed through adding 20 μL purified enzyme and 20 μL substrate inhibitors (Lys, Thr, Met, Lys + Thr, Lys + Met, Thr + Met, and Lys + Thr + Met) at 0.2, 1, 5, and 10 mM. The reaction was finished by adding volume FeCl3 after 30 min and the absorbance was measured at 540 nm. Water was instead of the substrate inhibitor as blank control. The enzyme activity of blank control was defined as 100%.

CpAK mutant A380C [4] = target: T3, CpAK mutant A380C (Corynebacterium glutamicum, UniProt P26512, A362C); assay: biochemical; parameters: species or system Corynebacterium pekinense; details: read-out: Relative activity (%)
T3 construct: His-tag (pET-28a) (N); made in house; host or cells: E. coli BL21
Method: as §2

WT (wild-type CpAK) = assay: Microscale thermophoresis (MST), WT; format: binding, Corynebacterium pekinense; details: 28 °C
Method: as §1

CpAK mutant A380C [5] = target: T3, CpAK mutant A380C; assay: Microscale thermophoresis (MST), A380C; format: binding, Corynebacterium pekinense
Method: as §1

CpAK mutant T379N/A380C [6] = target: T2, CpAK mutant T379N/A380C; assay: Microscale thermophoresis (MST), T379N/A380C; format: binding, Corynebacterium pekinense
Method: as §1

[7] = substrate: N[C@@H](CC(=O)O)C(=O)O; assay: Colorimetric end-point assay (FeCl3, 540 nm) with 0.5-16 mM L-Asp, 10.4 mM ATP, 1.6 mM MgSO4, 800 mM KCl, 800 mM NH4OH, 100 mM Tris-HCl pH 8.0, 28 °C, 30 min; fitted with the Hill equation.; format: biochemical
Method: The reaction system (1 mL) contained at the final concentration: 1.6 mM MgSO4, 800 mM KCl, 0.5–16 mM L-Asp, 10.4 mM ATP (dissoluted by 25 mM Tris–HCl), 100 mM Tris–HCl buffer solution (pH 8.0), 10 mM β-mercaptoethanol, and 800 mM NH4OH. The water was instead of L-Asp as blank control. The reaction was generated by adding 50 μL purified enzyme at 28 °C for 30 min, and stopped by adding FeCl3 solution (three parallel, below the same) and the absorbance were determined at 540 nm. The nonlinear curve was fitted by the Hill equation (V = Vmax (S^n)/(K^n + S^n)) using Origin 8.5 software. In the equation, the n value represents the Hill coefficient; the K value is equal to the substrate concentration at half the maximum rate of enzymatic reaction; Vmax and V indicate the maximum velocity and reaction rate, respectively; S means the substrate concentration.

Molecule	activity at 200 µM (CpAK mutant T379N/A380C [3])	activity at 1000 µM (CpAK mutant T379N/A380C [3])	activity at 5000 µM (CpAK mutant T379N/A380C [3])	activity at 10000 µM (CpAK mutant T379N/A380C [3])	activity at 200 µM (CpAK mutant A380C [4])	activity at 1000 µM (CpAK mutant A380C [4])	activity at 5000 µM (CpAK mutant A380C [4])	activity at 10000 µM (CpAK mutant A380C [4])	Km [7]	other results
N[C@@H](CC(=O)O)C(=O)O [Asp, L-aspartic acid (L-Asp)]										Kd (WT [1]): 655.1 ± 0.9 mM
NCCCC[C@H](N)C(=O)O [Lys, lysine]	96.99 ± 0.56%	98.8 ± 4.95%	106.9 ± 0.56%	116 ± 1.81%	94.8 ± 0.97%	95.7 ± 1.43%	99.7 ± 0.54%	104 ± 1.32%		Kd (WT [2]): 1.32 mM; Kd (WT (wild-type CpAK)): 1.32 mM; Kd (CpAK mutant A380C [5]): 5.32 ± 0.01 mM; Kd (CpAK mutant T379N/A380C [6]): 9.24 mM
CSCC[C@H](N)C(=O)O [Met, methionine]	90.47 ± 0.12%	96.33 ± 0.56%	98.12 ± 0.44%	99.47 ± 0.53%	95.1 ± 1.69%	97.71 ± 0.85%	98.3 ± 2.6%	98.1 ± 1.89%		
C[C@@H](O)[C@H](N)C(=O)O [Thr, threonine]	94.6 ± 3.26%	97.06 ± 0.68%	97.8 ± 1.95%	98.12 ± 0.44%	78.3 ± 1.19%	80.9 ± 3.06%	82.1 ± 3.56%	87.8 ± 3.53%		
B1									4.17 mM	
B2									3.57 mM	
B3									2.89 mM	
